Experimental data: ChEMBL document CHEMBL1201862, “PubChem BioAssay data set” (2004)
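Each compound was tested at five concentrations against cells in 96-well plates for 48 hours. Here, GI50 denotes the concentration required for 50% inhibition of growth.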 Active and inactive are the calls of the source. No stated cut-off is given here; in the data, active = GI50 up to about 1.1 µM and inactive = higher.

Columns and labels:
Experiment in all cases: DTP human tumour cell line panel, 48 h
[1] = tested on: UACC-62
[2] = tested on: A549
[3] = tested on: HCT-116
[4] = tested on: NCI-H23
[5] = tested on: K562
[6] = tested on: ACHN
[7] = tested on: NCI/ADR-RES
[8] = tested on: PC-3
[9] = tested on: SK-MEL-28
[10] = tested on: HT-29
[11] = tested on: OVCAR-8
[12] = tested on: SK-OV-3
[13] = tested on: Malme-3M
[14] = tested on: M14
[15] = tested on: CCRF-CEM
[16] = tested on: OVCAR-4
[17] = tested on: UACC-257
[18] = tested on: Hs-578T
[19] = tested on: MDA-MB-435
[20] = tested on: CAKI-1
[21] = tested on: LOX IMVI
[22] = tested on: SF-268
[23] = tested on: RXF 393
[24] = tested on: NCI-H226
[25] = tested on: MOLT-4
[26] = tested on: SK-MEL-2
[27] = tested on: T47D
[28] = tested on: A498
[29] = tested on: BT-549
[30] = tested on: HL-60
[31] = tested on: NCI-H522
[32] = tested on: HOP-62
[33] = tested on: SF-539
[34] = tested on: MDA-N
[35] = tested on: SNB-19
[36] = tested on: RPMI-8226
[37] = tested on: HCT-15
[38] = tested on: IGROV-1
[39] = tested on: MDA-MB-231
[40] = tested on: SNB-75
[41] = tested on: UO-31
[42] = tested on: OVCAR-5
[43] = tested on: OVCAR-3
[44] = tested on: NCI-H460
[45] = tested on: TK-10
[46] = tested on: SR
[47] = tested on: EKVX
[48] = tested on: 786-0
[49] = tested on: DU-145
[50] = tested on: SK-MEL-5
[51] = tested on: U-251
[52] = tested on: KM12
[53] = tested on: SW-620
[54] = tested on: HOP-92
[55] = tested on: COLO 205
[56] = tested on: SF-295
[57] = tested on: MCF7
[58] = tested on: SN12C

Structure (SMILES): O=C(CC1C=Cc2ccccc2N1C(=O)c1ccccc1)c1ccccc1 (stereo unspecified)
- GI50 [1]: 11.7 µM (inactive)
- GI50 [2]: 22.5 µM (inactive)
- GI50 [3]: 16 µM (inactive)
- GI50 [4]: 23 µM (inactive)
- GI50 [5]: 19.9 µM (inactive)
- GI50 [6]: 35.6 µM (inactive)
- GI50 [7]: 25.8 µM (inactive)
- GI50 [8]: 26.5 µM (inactive)
- GI50 [9]: 30.1 µM (inactive)
- GI50 [10]: 17.1 µM (inactive)
- GI50 [11]: 29.2 µM (inactive)
- GI50 [12]: 30.9 µM (inactive)
- GI50 [13]: 21.7 µM (inactive)
- GI50 [14]: 20.1 µM (inactive)
- GI50 [15]: 36.1 µM (inactive)
- GI50 [16]: 34.8 µM (inactive)
- GI50 [17]: 20.5 µM (inactive)
- GI50 [18]: 25.1 µM (inactive)
- GI50 [19]: 20.4 µM (inactive)
- GI50 [20]: 34.2 µM (inactive)
- GI50 [21]: 23.6 µM (inactive)
- GI50 [22]: 27.1 µM (inactive)
- GI50 [23]: 47.2 µM (inactive)
- GI50 [24]: 34.4 µM (inactive)
- GI50 [25]: 11.7 µM (inactive)
- GI50 [26]: 17.3 µM (inactive)
- GI50 [27]: 44.2 µM (inactive)
- GI50 [28]: 28.9 µM (inactive)
- GI50 [29]: 23.8 µM (inactive)
- GI50 [30]: 14 µM (inactive)
- GI50 [31]: 13.8 µM (inactive)
- GI50 [32]: 30.6 µM (inactive)
- GI50 [33]: 22.6 µM (inactive)
- GI50 [34]: 16.1 µM (inactive)
- GI50 [35]: 27.7 µM (inactive)
- GI50 [36]: 10.9 µM (inactive)
- GI50 [37]: 26.2 µM
- GI50 [38]: 19.1 µM (inactive)
- GI50 [39]: 21.9 µM (inactive)
- GI50 [40]: 45.2 µM (inactive)
- GI50 [41]: 20.4 µM (inactive)
- GI50 [42]: 25.5 µM (inactive)
- GI50 [43]: 13.4 µM (inactive)
- GI50 [44]: 22.8 µM (inactive)
- GI50 [45]: 36.3 µM (inactive)
- GI50 [46]: 11.9 µM (inactive)
- GI50 [47]: 12.6 µM (inactive)
- GI50 [48]: 29.3 µM (inactive)
- GI50 [49]: 50.8 µM (inactive)
- GI50 [50]: 13.3 µM (inactive)
- GI50 [51]: 23.1 µM (inactive)
- GI50 [52]: 19.3 µM (inactive)
- GI50 [53]: 33.6 µM (inactive)
- GI50 [54]: 24 µM (inactive)
- GI50 [55]: 19.5 µM (inactive)
- GI50 [56]: 27 µM (inactive)
- GI50 [57]: 29.1 µM (inactive)
- GI50 [58]: 27 µM (inactive)

Structure (SMILES): NC(=O)CNC(=O)[C@@H]1C[C@@H](OCCC(=O)O)CN1C(=O)OCc1ccccc1
- GI50 [1]: > 100 µM (inactive)
- GI50 [2]: > 100 µM (inactive)
- GI50 [3]: > 100 µM (inactive)
- GI50 [4]: > 100 µM (inactive)
- GI50 [5]: > 100 µM (inactive)
- GI50 [6]: > 100 µM (inactive)
- GI50 [7]: > 100 µM (inactive)
- GI50 [8]: > 100 µM (inactive)
- GI50 [9]: > 100 µM (inactive)
- GI50 [10]: > 100 µM (inactive)
- GI50 [11]: > 10 µM (inactive)
- GI50 [12]: > 100 µM (inactive)
- GI50 [13]: > 100 µM (inactive)
- GI50 [14]: > 100 µM (inactive)
- GI50 [15]: > 100 µM (inactive)
- GI50 [16]: > 100 µM (inactive)
- GI50 [17]: > 100 µM (inactive)
- GI50 [18]: > 100 µM (inactive)
- GI50 [19]: > 100 µM (inactive)
- GI50 [21]: > 100 µM (inactive)
- GI50 [22]: > 100 µM (inactive)
- GI50 [23]: > 100 µM (inactive)
- GI50 [24]: > 100 µM (inactive)
- GI50 [25]: > 100 µM (inactive)
- GI50 [26]: > 100 µM (inactive)
- GI50 [27]: > 100 µM (inactive)
- GI50 [28]: > 100 µM (inactive)
- GI50 [29]: > 100 µM (inactive)
- GI50 [30]: > 100 µM (inactive)
- GI50 [31]: > 100 µM (inactive)
- GI50 [32]: > 100 µM (inactive)
- GI50 [34]: > 100 µM (inactive)
- GI50 [35]: > 100 µM (inactive)
- GI50 [36]: > 100 µM (inactive)
- GI50 [37]: > 100 µM
- GI50 [38]: > 100 µM (inactive)
- GI50 [39]: > 100 µM (inactive)
- GI50 [40]: > 100 µM (inactive)
- GI50 [41]: > 100 µM (inactive)
- GI50 [42]: > 100 µM (inactive)
- GI50 [43]: > 100 µM (inactive)
- GI50 [44]: > 100 µM (inactive)
- GI50 [45]: > 100 µM (inactive)
- GI50 [46]: > 100 µM (inactive)
- GI50 [47]: > 100 µM (inactive)
- GI50 [48]: > 100 µM (inactive)
- GI50 [49]: > 100 µM (inactive)
- GI50 [50]: > 100 µM (inactive)
- GI50 [51]: > 100 µM (inactive)
- GI50 [52]: > 100 µM (inactive)
- GI50 [53]: > 100 µM (inactive)
- GI50 [55]: > 100 µM (inactive)
- GI50 [56]: > 100 µM (inactive)
- GI50 [57]: > 100 µM (inactive)
- GI50 [58]: > 100 µM (inactive)

Structure (SMILES): COC1=C(C)C(=O)c2c(c(COC(N)=O)c3n2CC2C3N2C)C1=O (stereo unspecified)
- GI50 [1]: < 0.0114 µM (active)
- GI50 [2]: < 0.01 µM (active)
- GI50 [3]: < 0.0125 µM (active)
- GI50 [4]: < 0.0108 µM (active)
- GI50 [5]: 0.051 µM (active)
- GI50 [6]: < 0.01 µM (active)
- GI50 [7]: < 0.025 µM (active)
- GI50 [8]: 0.0555 µM (active)
- GI50 [9]: 0.0502 µM (active)
- GI50 [10]: < 0.01 µM (active)
- GI50 [11]: < 0.0191 µM (active)
- GI50 [12]: < 0.0156 µM (active)
- GI50 [13]: 0.0495 µM (active)
- GI50 [14]: < 0.01 µM (active)
- GI50 [15]: 0.0154 µM (active)
- GI50 [16]: 0.0826 µM (active)
- GI50 [17]: < 0.0107 µM (active)
- GI50 [18]: 0.16 µM (active)
- GI50 [19]: 0.0189 µM (active)
- GI50 [20]: < 0.01 µM (active)
- GI50 [21]: < 0.01 µM (active)
- GI50 [22]: 0.0256 µM (active)
- GI50 [23]: < 0.0331 µM (active)
- GI50 [24]: 0.0766 µM (active)
- GI50 [25]: < 0.0147 µM (active)
- GI50 [26]: 0.0361 µM (active)
- GI50 [27]: 0.0301 µM (active)
- GI50 [28]: 0.0519 µM (active)
- GI50 [29]: 0.0222 µM (active)
- GI50 [30]: 0.0296 µM (active)
- GI50 [31]: < 0.0124 µM (active)
- GI50 [32]: < 0.01 µM (active)
- GI50 [33]: 0.0112 µM (active)
- GI50 [34]: 0.019 µM (active)
- GI50 [35]: < 0.0115 µM (active)
- GI50 [36]: < 0.0154 µM (active)
- GI50 [37]: < 0.0118 µM
- GI50 [38]: 0.0425 µM (active)
- GI50 [39]: 0.168 µM (active)
- GI50 [40]: < 0.0179 µM (active)
- GI50 [41]: < 0.0145 µM (active)
- GI50 [42]: 0.0313 µM (active)
- GI50 [43]: 0.0256 µM (active)
- GI50 [44]: < 0.01 µM (active)
- GI50 [45]: 0.0117 µM (active)
- GI50 [46]: < 0.01 µM (active)
- GI50 [47]: 0.14 µM (active)
- GI50 [48]: < 0.01 µM (active)
- GI50 [49]: < 0.01 µM (active)
- GI50 [50]: 0.0209 µM (active)
- GI50 [51]: < 0.01 µM (active)
- GI50 [52]: < 0.0166 µM (active)
- GI50 [53]: < 0.0113 µM (active)
- GI50 [54]: 0.148 µM (active)
- GI50 [55]: < 0.0157 µM (active)
- GI50 [56]: < 0.01 µM (active)
- GI50 [57]: < 0.01 µM (active)
- GI50 [58]: 0.0132 µM (active)
